Reference: PMC7617869, “Molecular glues that inhibit deubiquitylase activity and inflammatory signaling” (Nature Structural & Molecular Biology, 2025)
Values joined by “and” are separate entries in the source; they are usually repeats but may differ in a detail not shown here. Identical values can stand only once.

Tests used:
Assay type in all cases: biochemical
USP2 = target: T1, USP2 (Homo sapiens, UniProt O75604); assay: USP2 IQF diubiquitin selectivity assay; settings: for Normalised V0: Fig. 1e, USP-2; for USP2, normalised activity (Ext. 1a): two replicate columns
T1 construct: His (N, cleaved yes); host or cells: Escherichia coli BL21(DE3)
T1 sequence (O75604 258-605 limits assumed): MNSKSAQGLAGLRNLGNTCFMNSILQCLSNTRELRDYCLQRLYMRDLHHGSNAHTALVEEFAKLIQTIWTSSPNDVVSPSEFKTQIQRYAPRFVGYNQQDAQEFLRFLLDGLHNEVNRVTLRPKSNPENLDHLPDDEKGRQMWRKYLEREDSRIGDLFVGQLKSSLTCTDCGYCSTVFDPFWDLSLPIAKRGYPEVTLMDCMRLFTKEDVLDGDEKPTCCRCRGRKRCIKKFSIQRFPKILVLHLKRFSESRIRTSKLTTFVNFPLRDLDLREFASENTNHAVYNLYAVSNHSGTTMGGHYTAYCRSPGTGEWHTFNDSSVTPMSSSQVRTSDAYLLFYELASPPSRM
Method: BRISC DUB activity was measured at room temperature using 1 nM BRISC and 500 nM IQF diubiquitin K63 substrate (LifeSensors, DU6303) in the presence of DMSO and compounds at 10 μM (final concentrations). Assays were performed in 384-well black flat-bottom low-flange plates (Corning, 35373) in buffer containing 50 mM HEPES–NaOH pH 7.0, 100 mM NaCl, 1 mg ml^−1 BSA, 1 mM DTT and 0.03% v/v Brij-35. Then, 10 μl of twofold concentrated enzyme stock was dispensed, followed by transfer of 200 nl of compounds (1 mM stock) using a 384-pin tool and a 15-min incubation at room temperature. Then, 10 μl of twofold concentrated substrate stock was added and the reaction was monitored by measuring fluorescence intensity (excitation, 540 nm; emission, 580 nm) after 20-min incubation at room temperature and ~50% of substrate was consumed. Orthogonal assays for verification of H20 and P12 hit compounds using USP2 (100 nM) and trypsin (125 nM) were performed in identical conditions.
(§1) IQF assays were performed in DUB reaction buffer containing 50 mM HEPES–NaOH pH 7.0, 100 mM NaCl, 0.1 mg ml^−1 BSA, 1 mM DTT and 0.03% v/v Brij-35. […] The final concentration of BRISC WT, all BRISC mutants, HsBRISCΔLoop, MmBRISC and DrBRISCΔNΔC was 1 nM. Other enzymes were tested at the following concentrations: 5 nM ARISC (FL), 10 nM CfBRISCΔNΔC, 250 nM AMSH* (ref. [43]), 500 nM USP2 and 1 μM trypsin (Sigma, 9002-07-7). For Michaelis–Menten experiments, 1 nM BRISC with 0–1 μM IQF K63-linked diubiquitin substrate was used. Michaelis–Menten analyses and Lineweaver–Burk plots were calculated using GraphPad Prism (version 9.0).
(§2) To assess enzymatic activity, BRISC complexes were diluted to concentrations between 1 nM and 50 nM. […] Then, 20-μl enzyme reactions were carried out in 384-well black flat-bottom low-flange plates (Corning, 35373). DUB activity was measured using IQF K63-linked diubiquitin (LifeSensors, DU6303) at 50 nM. Cleaved diubiquitin was monitored by measuring fluorescence intensity (excitation, 544 nm; emission, 575 nm; dichroic mirror, 560 nm). Fluorescence intensity was measured every minute for 30 min at 30 °C. Fluorescence intensity units were plotted against time to generate a linear reaction progress curve, where the initial velocity (V0) corresponds to the gradient of the curve (typically achieved within 15 min). IC50 values were calculated using the GraphPad Prism (version 9.0) built-in dose–response equation for inhibitor concentration versus response (variable slope).

[1] = test system: AMSH* (a STAM2–AMSH fusion); assay: AMSH* IQF DUB activity assay; settings: for Normalised V0: Fig. 1e, AMSH*
Method: as §1, §2

BRCC36–Abraxas 2 complex = target: T2, BRCC36–Abraxas 2 complex (Homo sapiens, UniProt P46736+Q15018); assay: BRCC36–Abraxas 2 IQF DUB activity assay; settings: for Normalised V0: Fig. 1e, BRCC36-Abraxas2
T2 construct: made in house; host or cells: Spodoptera frugiperda (Sf9) insect cells, MultiBac
Method: as §1, §2

Compound: O=C(NC1CCNCC1)c1nn(C(=O)c2c(Cl)cccc2Cl)cc1NC(=O)c1c(Cl)cccc1Cl [JMS-175-2]
- Normalised V0 (USP2; JMS-175-2 0.02 μM): 1.069 and 1.241 and 0.9432
- Normalised V0 (USP2; JMS-175-2 0.0399999 μM): 0.8007 and 1.129 and 1.003
- Normalised V0 (USP2; JMS-175-2 0.0599997 μM): 1.048 and 0.9811 and 1.113
- Normalised V0 (USP2; JMS-175-2 0.0799994 μM): 0.9033 and 1.198 and 1.261
- Normalised V0 (USP2; JMS-175-2 0.119998 μM): 0.9288 and 1.09 and 1.206
- Normalised V0 (USP2; JMS-175-2 0.199996 μM): 0.6627 and 1.115 and 1.202
- Normalised V0 (USP2; JMS-175-2 0.499975 μM): 0.7837 and 1.098 and 1.253
- Normalised V0 (USP2; JMS-175-2 0.799936 μM): 0.8725 and 1 and 1.269
- Normalised V0 (USP2; JMS-175-2 1.25984 μM): 0.992 and 1.247
- Normalised V0 (USP2; JMS-175-2 1.9996 μM): 0.8222 and 1.018 and 1.206
- Normalised V0 (USP2; JMS-175-2 3.159 μM): 1.0183 and 0.9107 and 1.032
- Normalised V0 (USP2; JMS-175-2 5.19739 μM): 1.009 and 1.289
- Normalised V0 (USP2; JMS-175-2 7.99364 μM): 0.8621 and 1.003 and 1.185
- Normalised V0 (USP2; JMS-175-2 12.7839 μM): 0.6092 and 0.9802 and 1.084
- Normalised V0 (USP2; JMS-175-2 19.96 μM): 1.301 and 1.171 and 1.043
- Normalised V0 (USP2; JMS-175-2 31.4999 μM): 1.058 and 1.049 and 0.9631
- Normalised V0 (USP2; JMS-175-2 50.147 μM): 1.16 and 1.045 and 1.064
- Normalised V0 (USP2; JMS-175-2 79.7601 μM): 0.9987 and 0.9518 and 1.282
- Normalised V0 (USP2; JMS-175-2 125.99 μM): 1.008 and 1.145 and 1.176
- Normalised V0 (USP2; JMS-175-2 199.922 μM): 0.9471 and 0.7832 and 0.9905
- USP2, normalised activity (Ext. 1a) (USP2; log [compound (μM)] 0.1938, listed as H20): 1.2610 and 1.0496
- USP2, normalised activity (Ext. 1a) (USP2; log [compound (μM)] 0.4949, listed as H20): 1.2203 and 1.1061
- USP2, normalised activity (Ext. 1a) (USP2; log [compound (μM)] 0.7959, listed as H20): 1.1774 and 1.0526
- USP2, normalised activity (Ext. 1a) (USP2; log [compound (μM)] 1.0969, listed as H20): 1.1262 and 1.0278
- USP2, normalised activity (Ext. 1a) (USP2; log [compound (μM)] 1.3979, listed as H20): 1.0528 and 0.9672
- USP2, normalised activity (Ext. 1a) (USP2; log [compound (μM)] 1.6990, listed as H20): 1.0367 and 0.9078
- USP2, normalised activity (Ext. 1a) (USP2; log [compound (μM)] 2.0000, listed as H20): 0.9400 and 0.8456
- USP2, normalised activity (Ext. 1a) (USP2; log [compound (μM)] 2.3010, listed as H20): 0.9026 and 0.7165
- USP2, normalised activity (Ext. 1a) (USP2; log [compound (μM)] -0.1072, listed as H20): 1.1074 and 1.0499
- USP2, normalised activity (Ext. 1a) (USP2; log [compound (μM)] -0.4082, listed as H20): 1.1923 and 1.0651
- USP2, normalised activity (Ext. 1a) (USP2; log [compound (μM)] -0.7093, listed as H20): 1.1905 and 1.0735
- USP2, normalised activity (Ext. 1a) (USP2; log [compound (μM)] -1.7100, normalisation point): 1.0000
- inhibition of AMSH* [1]: did not inhibit
- Normalised V0 ([1]; JMS-175-2 0.02 μM): 0.9388 and 1.234 and 1.0263
- Normalised V0 ([1]; JMS-175-2 0.0399999 μM): 1.025 and 1.209 and 1.056
- Normalised V0 ([1]; JMS-175-2 0.0599997 μM): 0.9933 and 1.1324 and 1.071
- Normalised V0 ([1]; JMS-175-2 0.0799994 μM): 0.9897 and 1.213 and 1.205
- Normalised V0 ([1]; JMS-175-2 0.119998 μM): 0.9691 and 1.214 and 1.014
- Normalised V0 ([1]; JMS-175-2 0.199996 μM): 1.015 and 1.194 and 1.011
- Normalised V0 ([1]; JMS-175-2 0.499975 μM): 0.9952 and 1.163 and 1.175
- Normalised V0 ([1]; JMS-175-2 0.799936 μM): 1.012 and 1.167
- Normalised V0 ([1]; JMS-175-2 1.25984 μM): 0.9861 and 1.185 and 1.256
- Normalised V0 ([1]; JMS-175-2 1.9996 μM): 0.9727 and 1.04 and 1.202
- Normalised V0 ([1]; JMS-175-2 3.159 μM): 1.015 and 1.159 and 1.047
- Normalised V0 ([1]; JMS-175-2 5.19739 μM): 1.314 and 1.221 and 1.023
- Normalised V0 ([1]; JMS-175-2 7.99364 μM): 1.059 and 1.183 and 1.085
- Normalised V0 ([1]; JMS-175-2 12.7839 μM): 0.9322 and 1.462 and 1.072
- Normalised V0 ([1]; JMS-175-2 19.96 μM): 0.9939 and 1.127 and 1.08
- Normalised V0 ([1]; JMS-175-2 31.4999 μM): 1.033 and 1.252 and 1.115
- Normalised V0 ([1]; JMS-175-2 50.147 μM): 0.9855 and 1.172 and 0.9587
- Normalised V0 ([1]; JMS-175-2 79.7601 μM): 0.8988 and 1.1324 and 1.1315
- Normalised V0 ([1]; JMS-175-2 125.99 μM): 0.8758 and 1.102 and 0.8516
- Normalised V0 ([1]; JMS-175-2 199.922 μM): 0.8346 and 1.096 and 1.031
- Normalised V0 (BRCC36–Abraxas 2 complex; JMS-175-2 0.02 μM): 0.9193 and 1.28 and 0.6661
- Normalised V0 (BRCC36–Abraxas 2 complex; JMS-175-2 0.0399999 μM): 0.9382 and 1.101 and 1.021
- Normalised V0 (BRCC36–Abraxas 2 complex; JMS-175-2 0.0599997 μM): 0.9046 and 1.264
- Normalised V0 (BRCC36–Abraxas 2 complex; JMS-175-2 0.0799994 μM): 0.9962 and 1.366 and 1.351
- Normalised V0 (BRCC36–Abraxas 2 complex; JMS-175-2 0.119998 μM): 0.9007 and 1.233 and 1.5528
- Normalised V0 (BRCC36–Abraxas 2 complex; JMS-175-2 0.199996 μM): 1.097 and 1.27 and 0.9275
- Normalised V0 (BRCC36–Abraxas 2 complex; JMS-175-2 0.499975 μM): 0.8805 and 1.153 and 1.01
- Normalised V0 (BRCC36–Abraxas 2 complex; JMS-175-2 0.799936 μM): 0.7961 and 1.246 and 1.323
- Normalised V0 (BRCC36–Abraxas 2 complex; JMS-175-2 1.25984 μM): 1.021 and 1.5206 and 1.034
- Normalised V0 (BRCC36–Abraxas 2 complex; JMS-175-2 1.9996 μM): 0.8007 and 0.8599 and 1.275
- Normalised V0 (BRCC36–Abraxas 2 complex; JMS-175-2 3.159 μM): 1.12 and 1.1529 and 0.9992
- Normalised V0 (BRCC36–Abraxas 2 complex; JMS-175-2 5.19739 μM): 0.8446 and 1.053 and 1.407
- Normalised V0 (BRCC36–Abraxas 2 complex; JMS-175-2 7.99364 μM): 0.9387 and 0.8597 and 1.27
- Normalised V0 (BRCC36–Abraxas 2 complex; JMS-175-2 12.7839 μM): 0.8621 and 1.3106 and 1.2815
- Normalised V0 (BRCC36–Abraxas 2 complex; JMS-175-2 19.96 μM): 0.8364 and 1.032 and 1.13
- Normalised V0 (BRCC36–Abraxas 2 complex; JMS-175-2 31.4999 μM): 0.8279 and 0.9824 and 0.8224
- Normalised V0 (BRCC36–Abraxas 2 complex; JMS-175-2 50.147 μM): 0.8729 and 0.9534 and 1.051
- Normalised V0 (BRCC36–Abraxas 2 complex; JMS-175-2 79.7601 μM): 0.848 and 0.9243 and 1.386
- Normalised V0 (BRCC36–Abraxas 2 complex; JMS-175-2 125.99 μM): 0.7998 and 0.9987 and 1.073
- inhibition of BRCC36–Abraxas 2 complex (BRCC36–Abraxas 2 complex; minimally active complex): did not inhibit
